Test results: BindingDB's records for doi:10.1021/acs.jmedchem.2c02098 (University of Bologna, 2023)

What was measured:
[1] = target: Integrin alpha-L/beta-2 (LFA-1) (Homo sapiens); test: Agonist activity at alphaLbeta2 integrin receptor in human Jurkat E6.1 cells assessed as inhibition of ICAM-1-induced cell adhesion pre-incubated for 30 mins followed by 30 mins incubation in ICAM-1 coated wells by fluorescence plate reader assay
[2] = target: Integrin alpha5/beta1 (Homo sapiens); test: Agonist activity at alpha5beta1 integrin receptor in human K562 cells assessed as inhibition of fibronectin-induced cell adhesion pre-incubated for 30 mins followed by 1 hr incubation in fibronectin coated wells by fluorescence plate reader assay
[3] = target: Integrin alpha4/beta1 (Homo sapiens); test: Agonist activity at alpha4beta1 integrin receptor in human Jurkat E6.1 cells assessed as inhibition of fibronectin-induced cell adhesion pre-incubated for 30 mins followed by 30 mins incubation in fibronectin coated wells by fluorescence plate reader assay
[4] = target: Integrin alpha4/beta1 (Homo sapiens); test: Agonist activity at alpha4beta1 integrin receptor in human Jurkat E6.1 cells assessed as inhibition of vascular cell adhesion molecule 1-induced cell adhesion pre-incubated for 30 mins followed by 30 mins incubation in vascular cell adhesion molecule 1 coated wells by fluorescence plate reader assay

Row | EC50 [1] | EC50 [2] | EC50 [3] | EC50 [4] | Structure (SMILES)
1 | > 5 µM | > 5 µM | – | – | Cc1ccccc1NC(=O)N1C(=O)CC1CC(=O)O (stereo not given)
2 | > 5 µM | – | > 5 µM | > 5 µM | Cc1ccccc1NC(=O)N1C(=O)CC1CC(=O)NCC(=O)O (stereo not given)
